According to patent US20150376172A1, “FLUORO-[1,3]OXAZINES AS BACE1 INHIBITORS” (HOFFMANN-LA ROCHE INC., priority 2013, published 2015):

Target: T1, BACE1 (Homo sapiens, UniProt P56817)
T1 construct: endogenous in cells; host or cells: HEK293 APP cells
Assay: Cellular Aβ-lowering assay (Abeta 40 AlphaLISA)
Assay type: cell-based
Settings: HEK293 APP cells; 18-20 hrs incubation; Aβ 40 in culture supernatants by AlphaLISA; read-out: BACE1 cell act. Aβ40 IC50
Description: Cellular Aβ-lowering assay:
The Abeta 40 AlphaLISA Assay can be used. The HEK293 APP cells were seeded in 96 well Microtiter plates in cell culture medium (Iscove's, plus 10% (v/v) fetal bovine serum, penicillin/streptomycin) to about 80% confluency and the compounds were added at a 3× concentration in ⅓ volume of culture medium (final DMSO concentration was kept at 1% v/v). After 18-20 hrs incubation at 37° C. and 5% CO2 in a humidified incubator, the culture supernatants were harvested for the determination of Aβ 40 concentrations using Perkin-Elmer Human Amyloid beta 1-40 (high specificity) Kit (Cat#AL275C).
In a Perkin-Elmer White Optiplate-384 (Cat#6007290), 2 ul culture supernatants were combined with 2 μl of a 10× AlphaLISA Anti-hAβAcceptor beads+Biotinylated Antibody Anti-Aβ1-40 Mix (50 μg/mL/5 nM). After 1 hour room temperature incubation, 16 μl of a 1.25× preparation of Streptavidin (SA) Donor beads (25 μg/mL) were added and incubated for 30 minutes in the Dark. Light Emission at 615 nm was then recorded using EnVision-Alpha Reader. Levels of Aβ 40 in the culture supernatants were calculated as percentage of maximum signal (cells treated with 1% DMSO without inhibitor). The IC50 values were calculated using the Excel XLfit software.

T1 sequence (P56817 46-501): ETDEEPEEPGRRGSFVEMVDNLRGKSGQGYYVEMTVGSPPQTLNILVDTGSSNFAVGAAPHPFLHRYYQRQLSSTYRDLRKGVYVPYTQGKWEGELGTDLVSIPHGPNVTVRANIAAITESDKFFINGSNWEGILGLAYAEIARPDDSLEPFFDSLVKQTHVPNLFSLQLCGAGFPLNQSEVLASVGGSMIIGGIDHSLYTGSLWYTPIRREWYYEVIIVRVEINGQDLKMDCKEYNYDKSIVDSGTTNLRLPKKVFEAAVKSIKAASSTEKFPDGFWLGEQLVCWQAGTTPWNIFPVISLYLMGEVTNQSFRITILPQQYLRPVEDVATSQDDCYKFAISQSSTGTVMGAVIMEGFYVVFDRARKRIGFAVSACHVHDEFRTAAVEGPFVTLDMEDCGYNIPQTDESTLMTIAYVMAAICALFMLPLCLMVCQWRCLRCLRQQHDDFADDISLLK

Row | Compound | IC50 [nM]
1 | C[C@@]1(c2cc(C#Cc3cncnc3)ccc2F)C[C@@H](C(F)(F)F)OC(N)=N1 [Example 50, (4S,6S)-4-(2-fluoro-5-(pyrimidin-5-ylethynyl)phenyl)-4-methyl-6-(trifluoromethyl)-5,6-dihydro-4H-1,3-oxazin-2-amine] | 2660
2 | C[C@@]1(c2cc(C#Cc3cncc(C#N)c3)ccc2F)C[C@@H](C(F)(F)F)OC(N)=N1 [Example 56, 5-[2-[3-[(4S,6S)-2-amino-4-methyl-6-(trifluoromethyl)-5,6-dihydro-1,3-oxazin-4-yl]-4-fluorophenyl]ethynyl]pyridine-3-carbonitrile] | 1650
3 | C[C@@]1(c2cc(-c3cccc(C(F)(F)F)c3)cs2)C[C@@H](C(F)(F)F)OC(N)=N1 [Example 28, (4S,6S)-4-Methyl-6-(trifluoromethyl)-4-(4-(3-(trifluoromethyl)phenyl)thiophen-2-yl)-5,6-dihydro-4H-1,3-oxazin-2-amine] | 330
4 | Cc1cc(F)c([C@]2(C)C[C@@H](C(F)(F)F)OC(N)=N2)cc1C#Cc1ncc(C#N)cc1Cl [Example 69, 6-((5-((4S,6S)-2-Amino-4-methyl-6-(trifluoromethyl)-5,6-dihydro-4H-1,3-oxazin-4-yl)-4-fluoro-2-methylphenyl)ethynyl)-5-chloronicotinonitrile] | 130
5 | C[C@@]1(c2sc(-c3cncc(C#N)c3)cc2Cl)C[C@@H](C(F)(F)F)OC(N)=N1 [Example 31, 5-(5-((4S,6S)-2-Amino-4-methyl-6-(trifluoromethyl)-5,6-dihydro-4H-1,3-oxazin-4-yl)-4-chlorothiophen-2-yl)nicotinonitrile] | 340
6 | CC#CCOc1cnc(C(=O)Nc2ccc(F)c([C@@]3(C)N=C(N)O[C@H](C(F)(F)F)[C@@H]3F)c2)cn1 [Example 7, N-(3-((4R,5R,6S)-2-Amino-5-fluoro-4-methyl-6-(trifluoromethyl)-5,6-dihydro-4H-1,3-oxazin-4-yl)-4-fluorophenyl)-5-(but-2-ynyloxy)pyrazine-2-carboxamide] | 2
7 | Cc1cc(F)c([C@]2(C)C[C@@H](C(F)(F)F)OC(N)=N2)cc1-c1cnccc1F [Example 73, (4S,6S)-4-(2-Fluoro-5-(4-fluoropyridin-3-yl)-4-methylphenyl)-4-methyl-6-(trifluoromethyl)-5,6-dihydro-4H-1,3-oxazin-2-amine] | 1300
8 | COc1cnc(C#Cc2ccc(F)c([C@]3(C)C[C@@H](C(F)(F)F)OC(N)=N3)c2)cn1 [Example 25, (4S,6S)-4-(2-Fluoro-5-((5-methoxypyrazin-2-yl)ethynyl)phenyl)-4-methyl-6-(trifluoromethyl)-5,6-dihydro-4H-1,3-oxazin-2-amine] | 1280
9 | C[C@@]1(c2cc(-c3nnc(-c4ccc(Cl)cc4)o3)ccc2F)C[C@@H](C(F)(F)F)OC(N)=N1 [Example 40, (4S,6S)-4-(5-(5-(4-Chlorophenyl)-1,3,4-oxadiazol-2-yl)-2-fluorophenyl)-4-methyl-6-(trifluoromethyl)-5,6-dihydro-4H-1,3-oxazin-2-amine] | > 40000
10 | C[C@@]1(c2cc(-c3cncnc3)ccc2F)C[C@@H](C(F)(F)F)OC(N)=N1 [Example 11, (4S,6S)-4-(2-fluoro-5-(pyrimidin-5-yl)phenyl)-4-methyl-6-(trifluoromethyl)-5,6-dihydro-4H-1,3-oxazin-2-amine] | 420
11 | CC#Cc1cncc(-c2cc([C@]3(C)C[C@@H](C(F)(F)F)OC(N)=N3)c(F)cc2F)c1 [Example 19, (4S,6S)-4-(2,4-Difluoro-5-(5-(prop-1-ynyl)pyridin-3-yl)phenyl)-4-methyl-6-(trifluoromethyl)-5,6-dihydro-4H-1,3-oxazin-2-amine] | 570

Continued by falling IC50, values first:

Row | IC50 [nM] | Compound
12 | 10600 | Cc1cc(-c2cncc(-c3ccc(F)c([C@]4(CF)C[C@@H](C(F)(F)F)OC(N)=N4)c3)c2)n[nH]1 [Example 47, (4S,6S)-4-(2-fluoro-5-(5-(5-methyl-1H-pyrazol-3-yl)pyridin-3-yl)phenyl)-4-(fluoromethyl)-6-(trifluoromethyl)-5,6-dihydro-4H-1,3-oxazin-2-amine]
13 | 2520 | C[C@@]1(c2cc(-c3cncnc3)cs2)C[C@@H](C(F)(F)F)OC(N)=N1 [Example 42, (4S,6S)-4-Methyl-4-(4-(pyrimidin-5-yl)thiophen-2-yl)-6-(trifluoromethyl)-5,6-dihydro-4H-1,3-oxazin-2-amine]
14 | 1670 | COc1cnc(C#Cc2ccc(F)c([C@]3(C)C[C@@H](C(F)(F)F)OC(N)=N3)c2)nc1 [Example 24, (4S,6S)-4-(2-Fluoro-5-((5-methoxypyrimidin-2-yl)ethynyl)phenyl)-4-methyl-6-(trifluoromethyl)-5,6-dihydro-4H-1,3-oxazin-2-amine]
15 | 570 | Cc1cc(F)c([C@]2(C)C[C@@H](C(F)(F)F)OC(N)=N2)cc1C#Cc1ccc(C#N)cn1 [Example 70, 6-((5-((4S,6S)-2-Amino-4-methyl-6-(trifluoromethyl)-5,6-dihydro-4H-1,3-oxazin-4-yl)-4-fluoro-2-methylphenyl)ethynyl)nicotinonitrile]
16 | 450 | C[C@@]1(c2cc(C#Cc3ccc(C#N)nc3)ccc2F)C[C@@H](C(F)(F)F)OC(N)=N1 [Example 46, 5-((3-((4S,6S)-2-amino-4-methyl-6-(trifluoromethyl)-5,6-dihydro-4H-1,3-oxazin-4-yl)-4-fluorophenyl)ethynyl)picolinonitrile]
17 | 200 | C[C@@]1(c2cc(C#Cc3ccc(C#N)cc3)ccc2F)C[C@@H](C(F)(F)F)OC(N)=N1 [Example 66, 4-((3-((4S,6S)-2-Amino-4-methyl-6-(trifluoromethyl)-5,6-dihydro-4H-1,3-oxazin-4-yl)-4-fluorophenyl)ethynyl)benzonitrile]
18 | 180 | Cc1cc(F)c([C@]2(C)C[C@@H](C(F)(F)F)OC(N)=N2)cc1C#Cc1nn(C(F)F)cc1Cl [Example 71, (4S,6S)-4-(5-((4-Chloro-1-(difluoromethyl)-1H-pyrazol-3-yl)ethynyl)-2-fluoro-4-methylphenyl)-4-methyl-6-(trifluoromethyl)-5,6-dihydro-4H-1,3-oxazin-2-amine]
19 | 140 | C[C@@]1(c2cccc(NC(=O)c3ccc(C#N)cn3)c2F)C[C@@H](C(F)(F)F)OC(N)=N1 [Example 37, N-(3-((4S,6S)-2-Amino-4-methyl-6-(trifluoromethyl)-5,6-dihydro-4H-1,3-oxazin-4-yl)-2-fluorophenyl)-5-cyanopicolinamide]
20 | 59 | Cc1cc(C#Cc2ccc(F)c([C@]3(C)C[C@@H](C(F)(F)F)OC(N)=N3)c2)sn1 [Example 65, (4S,6S)-4-(2-Fluoro-5-((3-methylisothiazol-5-yl)ethynyl)phenyl)-4-methyl-6-(trifluoromethyl)-5,6-dihydro-4H-1,3-oxazin-2-amine]
21 | 13 | C[C@@]1(c2c(F)ccc(NC(=O)c3ccc(C#N)cn3)c2F)C[C@@H](C(F)(F)F)OC(N)=N1 [Example 38, N-(3-((4S,6S)-2-amino-4-methyl-6-(trifluoromethyl)-5,6-dihydro-4H-1,3-oxazin-4-yl)-2,4-difluorophenyl)-5-cyanopicolinamide]
22 | 10 | C[C@]1(c2cc(NC(=O)c3ccc(C#N)cn3)ccc2F)N=C(N)O[C@H](C(F)(F)F)[C@@H]1F [Example 2, N-(3-((4R,5R,6S)-2-Amino-5-fluoro-4-methyl-6-(trifluoromethyl)-5,6-dihydro-4H-1,3-oxazin-4-yl)-4-fluorophenyl)-5-cyanopicolinamide]
